Read-outs that look alike come from different tables or passages of the source.
Test system: Triton WR-1339-induced hyperlipidemia in rat
Experiment: antilipotropic effect in Triton WR-1339-induced hyperlipidemia in rat
Type: in vivo, Wistar-strain male rats
Conditions: 50 mg/kg oral, vs control
Excerpt: Wistar-strain male rats of 5-9 week age were used as test animals. One test group consisting of six (6) rats.
[a] is a determined value obtained from the control group, and
[b] is a determined value obtained from the test group).

[1] = 24 hours after Triton WR-1339 (400 mg/kg, tail vein), read-out: lowering ratio of serum triglycerides, 24 hours after Triton WR-1339
[2] = 24 hours after Triton WR-1339 (400 mg/kg, tail vein), read-out: lowering ratio of total serum cholesterol, 24 hours after Triton WR-1339
[3] = 48 hours after Triton WR-1339 (400 mg/kg, tail vein), read-out: lowering ratio of serum triglycerides, 48 hours after Triton WR-1339
[4] = 48 hours after Triton WR-1339 (400 mg/kg, tail vein), read-out: lowering ratio of total serum cholesterol, 48 hours after Triton WR-1339

SMILES	inhibition in vivo at 50 mg/kg [1] [%]	inhibition in vivo at 50 mg/kg [2] [%]	inhibition in vivo at 50 mg/kg [3] [%]	inhibition in vivo at 50 mg/kg [4] [%]
CCOP(=O)(Cc1ccc(C(=O)N(Cc2ccc(Cl)cc2)c2ccc(Cl)c(Cl)c2)cc1)OCC [compound 17]	56.8	27.8	94.1	64.4
CCOP(=O)(Cc1ccc(C(=O)Nc2ccc(F)cc2)cc1)OCC [compound 20]	57.3	27	90.5	55.1
CCOP(=O)(Cc1ccc(C(=O)Nc2ccc(Cl)c(C(F)(F)F)c2)cc1)OCC [compound 9]	11.3	11.7	68.4	42.3
CCOP(=O)(Cc1ccc(C(=O)Nc2ccc(C#N)cc2)cc1)OCC [compound 19]	90.5	60.6	94.7	63.6
CCOP(=O)(Cc1ccc(C(=O)Nc2ccc([N+](=O)[O-])cc2)cc1)OCC [compound 18]	54.4	32.7	74.9	37.5
CCOP(=O)(Cc1ccc(C(=O)Nc2ccc(C(F)(F)F)cc2)cc1)OCC [compound 13]	73.9	33.7	95.4	64.4
CCOP(=O)(Cc1ccc(C(=O)N(c2ccc(Cl)cc2)C2CCCC2)cc1)OCC [compound 15]	23	9.8	55.8	22.6
CCOP(=O)(Cc1ccc(C(=O)Nc2ccc(OC)cc2)cc1)OCC [compound 23]	25.5	17.3	27.6	32.5
CCOP(=O)(Cc1ccc(C(=O)N(Cc2ccc(Cl)cc2)c2ccc(Cl)cc2)cc1)OCC [compound 21]	47.9	15.9	89.1	52.3
CCOP(=O)(Cc1ccc(C(=O)N(C)c2ccc(Cl)cc2)cc1)OCC [compound 14]	46	29.3	–	49.4
CCOP(=O)(Cc1ccc(C(=O)N(Cc2ccccc2)c2ccc(C(F)(F)F)cc2)cc1)OCC [compound 12]	60.4	36.9	83.9	–
CCOP(=O)(Cc1ccc(C(=O)Nc2ccc(I)cc2)cc1)OCC [compound 16]	94.1	64	95.3	75.1
